Experimental findings from ChEMBL document CHEMBL1201862, “PubChem BioAssay data set” (2004) are described below.

For test [1], the target named is T1, Small ubiquitin-related modifier 1 (Homo sapiens, UniProt P63165). The test can be described thus: SUMO1 protein-protein binding blockers, potency – biochemical, FRET, dose response (AID 624383). Conditions: read-out: IC50_Mean. The class given is functional.
A further test deals with T2, Estrogen receptor (Homo sapiens, UniProt P03372).
T2 sequence (P03372 whole entry): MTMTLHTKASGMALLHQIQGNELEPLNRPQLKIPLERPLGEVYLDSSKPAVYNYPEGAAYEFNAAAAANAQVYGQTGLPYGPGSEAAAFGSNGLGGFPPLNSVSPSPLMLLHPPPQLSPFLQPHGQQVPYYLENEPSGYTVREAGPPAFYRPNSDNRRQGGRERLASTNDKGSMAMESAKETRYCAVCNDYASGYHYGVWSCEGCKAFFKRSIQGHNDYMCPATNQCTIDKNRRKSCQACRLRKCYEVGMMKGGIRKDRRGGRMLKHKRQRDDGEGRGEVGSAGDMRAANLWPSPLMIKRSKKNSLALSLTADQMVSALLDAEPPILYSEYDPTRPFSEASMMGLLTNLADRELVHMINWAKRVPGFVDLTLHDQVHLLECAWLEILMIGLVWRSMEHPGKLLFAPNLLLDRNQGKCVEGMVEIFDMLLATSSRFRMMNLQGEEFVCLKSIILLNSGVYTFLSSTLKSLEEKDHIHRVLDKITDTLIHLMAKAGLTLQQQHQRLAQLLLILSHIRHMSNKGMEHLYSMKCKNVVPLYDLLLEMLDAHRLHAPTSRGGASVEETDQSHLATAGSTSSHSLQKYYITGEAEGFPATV

Test [2] has as its target T1, Small ubiquitin-related modifier 1. The test can be described thus: SUMO1 protein interaction blockers, potency – biochemical, fluorescence polarization, uHTS hits, dose response (AID 624382). Conditions: read-out: IC50_Mean. It counts as functional. (In general: In fluorescence polarisation assays a small probe gives low polarisation when free and higher when bound to something large.)

Test [3] concerns the target Tyrosine-protein phosphatase non-receptor type 5 (Homo sapiens, UniProt P54829). The test can be described thus: PTPN5 enzyme inhibition – biochemical, fluorescence intensity, uHTS hits, confirmation (AID 602372). The class given is functional. Particulars: read-out: IC50_Mean.
The target of test [4] is Dual specificity protein phosphatase 3 (Homo sapiens, UniProt P51452). The test can be described thus: VHR phosphatase inhibition, dose response, selectivity assay for STEP inhibitor project, biochemical (AID 602374). It counts as functional. Conditions: read-out: IC50_Mean.
Chain of Dual specificity protein phosphatase 3 (P51452 whole entry): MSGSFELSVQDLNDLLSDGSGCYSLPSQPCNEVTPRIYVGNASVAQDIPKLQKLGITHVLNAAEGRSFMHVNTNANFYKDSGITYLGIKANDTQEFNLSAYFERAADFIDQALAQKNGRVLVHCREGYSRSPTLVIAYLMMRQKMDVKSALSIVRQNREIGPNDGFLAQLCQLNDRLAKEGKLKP
In test [5] the target is T3, Tyrosine-protein phosphatase non-receptor type 22 (Homo sapiens, UniProt Q9Y2R2).
T3 sequence (Q9Y2R2 whole entry): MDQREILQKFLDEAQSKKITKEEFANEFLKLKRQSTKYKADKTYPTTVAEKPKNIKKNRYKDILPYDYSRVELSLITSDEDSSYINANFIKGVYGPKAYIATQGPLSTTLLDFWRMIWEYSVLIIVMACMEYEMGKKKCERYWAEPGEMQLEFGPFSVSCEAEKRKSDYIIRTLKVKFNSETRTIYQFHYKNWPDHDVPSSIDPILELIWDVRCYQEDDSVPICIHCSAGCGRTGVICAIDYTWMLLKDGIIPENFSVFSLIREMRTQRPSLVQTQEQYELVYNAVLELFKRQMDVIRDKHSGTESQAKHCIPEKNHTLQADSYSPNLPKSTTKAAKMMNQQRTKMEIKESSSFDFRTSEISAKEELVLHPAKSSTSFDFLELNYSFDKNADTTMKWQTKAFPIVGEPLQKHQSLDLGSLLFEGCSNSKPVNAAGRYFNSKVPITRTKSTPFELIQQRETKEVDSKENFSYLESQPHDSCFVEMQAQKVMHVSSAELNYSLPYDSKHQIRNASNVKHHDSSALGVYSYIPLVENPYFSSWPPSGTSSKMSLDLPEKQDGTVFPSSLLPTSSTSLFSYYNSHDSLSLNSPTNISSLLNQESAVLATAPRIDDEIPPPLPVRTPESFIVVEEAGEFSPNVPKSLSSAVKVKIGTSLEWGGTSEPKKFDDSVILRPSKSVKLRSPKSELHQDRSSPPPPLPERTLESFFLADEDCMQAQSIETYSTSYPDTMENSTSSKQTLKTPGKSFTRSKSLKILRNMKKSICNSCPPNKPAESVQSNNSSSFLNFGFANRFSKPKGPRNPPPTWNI
In words: lymphoid phosphatase LYP inhibitors – biochemical, selectivity assay for STEP inhibitor project, dose response (AID 624241). The class given is functional.

The target of test [6] is Tyrosine-protein phosphatase non-receptor type 11 (Homo sapiens, UniProt Q06124). In words: PTPN11 enzyme inhibitors – biochemical, selectivity assay for STEP inhibitor project, dose response (AID 602367). The class given is functional. Conditions: read-out: IC50_Mean.
Chain of Tyrosine-protein phosphatase non-receptor type 11 (Q06124 whole entry): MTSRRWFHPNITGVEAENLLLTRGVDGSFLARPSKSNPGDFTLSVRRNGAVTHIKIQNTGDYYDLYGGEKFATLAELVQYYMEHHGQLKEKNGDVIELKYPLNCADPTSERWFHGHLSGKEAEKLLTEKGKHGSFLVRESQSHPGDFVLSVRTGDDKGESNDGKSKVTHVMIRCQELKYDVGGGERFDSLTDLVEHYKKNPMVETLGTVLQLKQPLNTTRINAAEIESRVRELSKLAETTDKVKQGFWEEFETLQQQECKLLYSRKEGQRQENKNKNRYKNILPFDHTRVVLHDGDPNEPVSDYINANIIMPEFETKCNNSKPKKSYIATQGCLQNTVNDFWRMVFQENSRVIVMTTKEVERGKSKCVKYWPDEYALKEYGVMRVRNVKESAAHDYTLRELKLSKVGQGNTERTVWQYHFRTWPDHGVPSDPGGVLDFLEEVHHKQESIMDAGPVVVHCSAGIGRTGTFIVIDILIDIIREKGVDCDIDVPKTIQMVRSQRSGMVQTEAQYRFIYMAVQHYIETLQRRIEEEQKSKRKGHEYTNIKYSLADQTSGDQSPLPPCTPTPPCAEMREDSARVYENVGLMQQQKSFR

Calls of active or inactive are those of the source. For most assays here, no stated cut-off is given here; in the data, active = IC50 of 20 µM or less and inactive = more.

T1 sequence (P63165 whole entry): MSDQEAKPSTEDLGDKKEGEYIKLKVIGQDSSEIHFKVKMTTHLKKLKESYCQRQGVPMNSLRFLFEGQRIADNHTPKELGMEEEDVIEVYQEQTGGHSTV
Chain of Tyrosine-protein phosphatase non-receptor type 5 (P54829 whole entry): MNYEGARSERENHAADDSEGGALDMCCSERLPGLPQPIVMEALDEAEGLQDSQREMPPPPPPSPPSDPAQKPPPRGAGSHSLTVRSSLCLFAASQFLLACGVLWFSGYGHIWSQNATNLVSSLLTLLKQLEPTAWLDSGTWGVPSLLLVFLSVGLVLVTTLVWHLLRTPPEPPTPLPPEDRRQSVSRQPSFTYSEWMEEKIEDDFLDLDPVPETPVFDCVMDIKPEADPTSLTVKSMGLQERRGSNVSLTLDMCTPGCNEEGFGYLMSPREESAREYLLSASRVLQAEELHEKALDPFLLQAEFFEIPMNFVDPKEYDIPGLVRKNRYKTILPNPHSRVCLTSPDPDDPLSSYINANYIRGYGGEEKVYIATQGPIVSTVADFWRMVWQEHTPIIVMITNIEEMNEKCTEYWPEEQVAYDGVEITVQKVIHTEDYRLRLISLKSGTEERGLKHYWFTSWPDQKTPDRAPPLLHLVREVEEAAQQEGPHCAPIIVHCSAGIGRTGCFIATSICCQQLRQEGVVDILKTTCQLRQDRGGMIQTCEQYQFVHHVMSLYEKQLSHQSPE

For `Cc1ccc(-n2nnnc2SCC(=O)Nc2ccc3c(c2)COC3=O)cc1C`, the IC50 is 8.2 µM (active) in test [1], 27.1 µM (active) on Estrogen receptor and > 66.6 µM (inactive) in test [2].

As for `Cc1c(C)c2ccc(OCC(=O)Nc3ccc(S(N)(=O)=O)cc3)c(C)c2oc1=O`, the IC50 in test [3] is 22.9 µM (inactive); in test [4], 10.8 µM (active); in test [5] it was 44.9 µM (inactive); in test [6], 6.82 µM (active).
